# What was measured:
# [1] = test system: LX-2 hepatic stellate cells; experiment: TGFβ1-induced fibrogenic gene expression (Col1a1, Acta2, Timp2) in LX-2 hepatic stellate cells, qPCR; assay type: cell-based, human; details: LX-2 cells with TGFβ1
# Description: Hepatic stellate cells in a healthy liver are in the space of Disse, between the hepatocytes and liver sinusoidal endothelial cells. In response to liver injury hepatic stellate cells become activated, proliferative and contractile, increase production of aSMA, secretion of type I and III collagens and specific MMP and TIMP proteins. LX-2 cells were selected as a model of activated hepatic stellate cells and used to test whether specific amino acid compositions would reduce fibrogenic gene expression induced with TGFβ1.
# LX-2 hepatic stellate cells (Millipore) were seeded on day 0 at 1.67E4 cells per well in collagen I coated 96-well microplates (ThermoFisher) in Dulbecco's Modified Eagle Medium (DMEM, Corning) supplemented with 2% heat inactivated fetal bovine serum (HI-FBS, HyClone) and 0.2% Primocin (InVivoGen) and incubated overnight at 37° C., 5% CO2. […] Combinations containing N-acetylcysteine were dosed with 10 mM. Cells were pretreated for 6 hours at 37° C., 5% CO2. After pretreatment, TGFβ1 (R&D Systems) or vehicle was spiked into each well for a final concentration of 5 ng/mL and cells were incubated under this stimulus for a further 12 hours at 37° C., 5% CO2.
# After 12 hour incubation, RNA extraction and quantitative PCR was conducted on lysates to determine collagen-1a1 expression normalized to β-actin housekeeping expression using the ΔΔCt method using TaqMan primer probes (Integrated DNA Technologies: Col1A1, Hs.PT.58.15517795; Actb, Hs.PT.39a.22214847; Acta2, Hs.PT.56a.24853961; Timp2, Hs.PT.58.14780594).
# [2] = test system: Hsp47 gene expression, primary human hepatic stellate cells; experiment: Hsp47 gene expression in TGFβ1-stimulated primary human hepatic stellate cells; assay type: cell-based; details: for Hsp47 Fold Expression Relative to Control, Mean: first donor, normalized to Gapdh, single amino acid; for Hsp47 gene expression: primary human hepatic stellate cells, three healthy donors, TGFβ1 3 ng/mL 24 h, summary in words
# Description: Primary human hepatic stellate cells were obtained from Samsara Sciences based on the following criteria for selecting donors: adult age (between 18 and 50 years), normal BMI (>18.5 and <25), and absence of confounding liver disease. Cells grown in Complete HSC Medium to ˜80% confluence in T75 or T150 flasks below passage 10 were seeded into sterile, collagen I coated, 96-well optical plastic microplates (ThermoScientific, 152036) at 6000 cells per well (1250 cells per cm2) and incubated overnight at 37° C., 5% CO2 in a humidified incubator in DMEM with 2% Fetal Bovine Serum and 1% Antibiotic-Antimycotic.
# After the overnight incubation, plates were removed from the incubator and the medium was gently pipetted off and washed twice with 150 μL per well DPBS. The DPBS was removed and the pretreatment medium (±single amino acid dropout, 1×HMDB DMEM+1% Antibiotic-Antimycotic, 10 mM HEPES, ±supplemental amino acid dose; see experiment for medium composition) was applied to the cells at 150 μL per well. Plates were returned to the incubator for 10.5 hours.
# After 10.5 hour pretreatment, the medium was removed from the cells, and the same pretreatment medium, now supplemented with 3 ng/mL TGFβ1, was applied. Each plate contained 3 ng/mL TGFβ1 in 1× human plasma amino acid (HMDB or PAA) concentration medium, 0 ng/mL in 1×HMDB, and 3 ng/mL TGFβ1+20 μM Silybin in 1×HMDB to serve as controls. Plates were then incubated for 24 hours at 37° C., 5% CO2.
# After 24 hour stimulus, supernatant was removed and frozen at −80° C. in two separate aliquots. The cells were then washed with 125 μL per well Buffer FCW (FastLane Cell Multiplex NR Kit, Qiagen, 216713). The wash buffer was immediately removed and 50 μL of Cell Processing Mix (containing genomic DNA Wipeout buffer) was applied to lyse cells, incubating for 10 minutes at room temperature. RNA lysate was then transferred to 96-well qPCR plates, sealed, and gDNA was digested on thermal cycler at 75° C. for 5 minutes. RNA lysate was frozen at −80° C.
# Each 20 μL one-step RT-qPCR reaction contained 4 μL of RNA lysate. Gene expression of Hsp47, and Gapdh were multiplexed using the HEX, and FAM fluorescent channels, respectively, with commercially available primer-probe mixes (the Human Hsp47 Primer-Probe Set, HEX; and the Human Gapdh Primer-Probe Set, FAM from IDT). Gene expression was evaluated using the ΔΔCq method within each single amino acid dropout and supplementation by normalizing to its own 1×HMDB concentration.
# [3] = test system: Col1a1 gene expression, primary human hepatic stellate cells; experiment: Col1a1 gene expression in TGFβ1-stimulated primary human hepatic stellate cells; assay type: cell-based; details: for Col1a1 Fold Expression Relative to Control, Mean: normalized to Gapdh; for Col1a1 gene expression: primary human hepatic stellate cells, three healthy donors, TGFβ1 3 ng/mL 24 h, summary in words
# Description: Primary human hepatic stellate cells were obtained from Samsara Sciences. Cells were grown in Complete HSC Medium to ˜80% confluence in T75 or T150 flasks below passage 10 were seeded into sterile, collagen I coated, 96-well optical plastic microplates (ThermoScientific, 152036) and incubated overnight at 37° C., 5% CO2 in a humidified incubator in DMEM with 2% Fetal Bovine Serum and 1% Antibiotic-Antimycotic. After the overnight incubation, plates are washed and pretreated with medium±single amino acid dropout, 1×HMDB DMEM±supplemental amino acid dose for 10.5 hours. After 10.5 hour pretreatment, the same pretreatment medium supplemented with 3 ng/mL TGFβ1, was applied and incubated for 24 hours at 37° C., 5% CO2. After 24 hour stimulus, supernatant was removed, RNA was extracted and gene expression was evaluated using the ΔΔCq method within each single amino acid dropout and supplementation by normalizing to its own 1×HMDB concentration.
# [4] = individual amino acid at 1X HMDB derived concentration
# [5] = individual amino acid at 50X HMDB derived concentration
smiles,measurement,setting,value
"CC[C@H](C)[C@H](N)C(=O)O [ILE, isoleucine]","Col1a1 gene expression, mean",[1]; [4],2.020
same,"Col1a1 gene expression, mean",[1]; [5],2.028
same,"Hsp47 Fold Expression Relative to Control, normalized to Gapdh (Mean)","[2]; Table 38, second donor, 66 μM (baseline 1×HMDB concentration)",1.00 fold
same,"Hsp47 Fold Expression Relative to Control, normalized to Gapdh (Mean)","[2]; Table 38, second donor, 1328 μM",0.90 fold
same,"Hsp47 Fold Expression Relative to Control, normalized to Gapdh (Mean)","[2]; Table 38, second donor, 3320 μM",0.92 fold
same,"Hsp47 Fold Expression Relative to Control, normalized to Gapdh (Mean)","[2]; Table 38, second donor, 6639 μM",0.94 fold
same,"Hsp47 Fold Expression Relative to Control, normalized to Gapdh (Mean)","[2]; Table 40, second donor (so in the source), 66 μM (baseline 1×HMDB concentration)",1.00 fold
same,"Hsp47 Fold Expression Relative to Control, normalized to Gapdh (Mean)","[2]; Table 40, second donor (so in the source), 1328 μM",1.00 fold
same,"Hsp47 Fold Expression Relative to Control, normalized to Gapdh (Mean)","[2]; Table 40, second donor (so in the source), 3320 μM",0.98 fold
same,"Hsp47 Fold Expression Relative to Control, normalized to Gapdh (Mean)","[2]; Table 40, second donor (so in the source), 6639 μM",1.06 fold
same,"Hsp47 Fold Expression Relative to Control, Mean",[2]; 66 μM (1X reference),1.00 fold
same,"Hsp47 Fold Expression Relative to Control, Mean",[2]; 1328 μM,1.07 fold
same,"Hsp47 Fold Expression Relative to Control, Mean",[2]; 3320 μM,1.22 fold
same,"Hsp47 Fold Expression Relative to Control, Mean",[2]; 6639 μM,0.99 fold
same,Hsp47 gene expression,[2],did not significantly change
same,"Col1a1 Fold Expression Relative to Control, Mean","[3]; Table 31-4, second donor, 66 μM (baseline, reference)",1.02 fold
same,"Col1a1 Fold Expression Relative to Control, Mean","[3]; Table 31-4, second donor, 1328 μM",0.94 fold
same,"Col1a1 Fold Expression Relative to Control, Mean","[3]; Table 31-4, second donor, 3320 μM",0.94 fold
same,"Col1a1 Fold Expression Relative to Control, Mean","[3]; Table 31-4, second donor, 6639 μM",1.03 fold
same,"Col1a1 Fold Expression Relative to Control, Mean","[3]; first donor, 66 μM (baseline, reference)",1.01 fold
same,"Col1a1 Fold Expression Relative to Control, Mean","[3]; first donor, 1328 μM",1.05 fold
same,"Col1a1 Fold Expression Relative to Control, Mean","[3]; first donor, 3320 μM",1.10 fold
same,"Col1a1 Fold Expression Relative to Control, Mean","[3]; first donor, 6639 μM",1.11 fold
same,Col1a1 gene expression,[3],did not significantly change
same,"Col1a1 Fold Expression Relative to Control, Mean","[3]; second donor, 66 μM (baseline, reference)",1.00 fold
same,"Col1a1 Fold Expression Relative to Control, Mean","[3]; second donor, 1328 μM",0.97 fold
same,"Col1a1 Fold Expression Relative to Control, Mean","[3]; second donor, 3320 μM",0.99 fold
same,"Col1a1 Fold Expression Relative to Control, Mean","[3]; second donor, 6639 μM",1.03 fold
"CC(C)[C@H](N)C(=O)O [VAL, valine]","Col1a1 gene expression, mean",[1]; [4],2.093
same,"Col1a1 gene expression, mean",[1]; [5],2.203
same,"Hsp47 Fold Expression Relative to Control, normalized to Gapdh (Mean)","[2]; Table 38, second donor, 234 μM (baseline 1×HMDB concentration)",1.00 fold
same,"Hsp47 Fold Expression Relative to Control, normalized to Gapdh (Mean)","[2]; Table 38, second donor, 4684 μM",1.02 fold
same,"Hsp47 Fold Expression Relative to Control, normalized to Gapdh (Mean)","[2]; Table 38, second donor, 11710 μM",0.99 fold
same,"Hsp47 Fold Expression Relative to Control, normalized to Gapdh (Mean)","[2]; Table 38, second donor, 23420 μM",0.89 fold
same,"Hsp47 Fold Expression Relative to Control, normalized to Gapdh (Mean)","[2]; Table 40, second donor (so in the source), 234 μM (baseline 1×HMDB concentration)",1.00 fold
same,"Hsp47 Fold Expression Relative to Control, normalized to Gapdh (Mean)","[2]; Table 40, second donor (so in the source), 4684 μM",0.97 fold
same,"Hsp47 Fold Expression Relative to Control, normalized to Gapdh (Mean)","[2]; Table 40, second donor (so in the source), 11710 μM",0.95 fold
same,"Hsp47 Fold Expression Relative to Control, normalized to Gapdh (Mean)","[2]; Table 40, second donor (so in the source), 23420 μM",0.95 fold
same,"Hsp47 Fold Expression Relative to Control, Mean",[2]; 234 μM (1X reference),1.00 fold
same,"Hsp47 Fold Expression Relative to Control, Mean",[2]; 4684 μM,1.05 fold
same,"Hsp47 Fold Expression Relative to Control, Mean",[2]; 11710 μM,1.05 fold
same,"Hsp47 Fold Expression Relative to Control, Mean",[2]; 23420 μM,1.00 fold
same,Hsp47 gene expression,[2],did not significantly change
same,"Col1a1 Fold Expression Relative to Control, Mean","[3]; Table 31-4, second donor, 234 μM (baseline, reference)",1.01 fold
same,"Col1a1 Fold Expression Relative to Control, Mean","[3]; Table 31-4, second donor, 4684 μM",1.22 fold
same,"Col1a1 Fold Expression Relative to Control, Mean","[3]; Table 31-4, second donor, 11710 μM",1.27 fold
same,"Col1a1 Fold Expression Relative to Control, Mean","[3]; Table 31-4, second donor, 23420 μM",1.13 fold
same,"Col1a1 Fold Expression Relative to Control, Mean","[3]; first donor, 234 μM (baseline, reference)",1.00 fold
same,"Col1a1 Fold Expression Relative to Control, Mean","[3]; first donor, 4684 μM",1.05 fold
same,"Col1a1 Fold Expression Relative to Control, Mean","[3]; first donor, 11710 μM",1.09 fold
same,"Col1a1 Fold Expression Relative to Control, Mean","[3]; first donor, 23420 μM",1.00 fold
same,Col1a1 gene expression,[3],did not significantly change
same,"Col1a1 Fold Expression Relative to Control, Mean","[3]; second donor, 234 μM (baseline, reference)",1.00 fold
same,"Col1a1 Fold Expression Relative to Control, Mean","[3]; second donor, 4684 μM",1.05 fold
same,"Col1a1 Fold Expression Relative to Control, Mean","[3]; second donor, 11710 μM",0.98 fold
same,"Col1a1 Fold Expression Relative to Control, Mean","[3]; second donor, 23420 μM",1.05 fold
